Values quoted from earlier work, collected in US5585379A, “Acyclovir antiviral gel composition” (AGIS Industries (1983) Ltd., priority 1992, dated 1996).
Like-named read-outs stand apart in the source and are kept apart here.

Key:
herpes simplex virus = details: in vitro and in vivo
[1] = oral
[2] = test system: herpes simplex virus infections

Nc1nc2c(ncn2COCCO)c(=O)[nH]1 [Acyclovir, 9-(2-hydroxyethoxymethyl)guanine]
solubility in hydrophobic solvent systems (hydrophobic solvent systems): almost totally insoluble in hydrophobic solvent systems | solubility in water (words): low solubility in water | solubility in water (words) (listed as acyclovir): poor water-solubility | antiviral activity against herpes simplex virus (words) (herpes simplex virus): active against herpes simplex virus | antiviral activity against herpes simplex virus (words) (herpes simplex virus; listed as acyclovir): potent antiviral activity against herpes simplex virus | therapeutic effect on vulvar vestibulitis [1]: therapeutic effect on vulvar vestibulitis | efficacy of topical therapy compared to oral or parenteral [2]: lacks efficacy as compared to oral or parenteral administrations
